Data on seven molecules can be found in article PMC4691232 (Chemistry & Biology, 2015).

Assay [1] has as its target T1, WcbL (Burkholderia pseudomallei, UniProt H7C745). The experiment in a line: biochemical. It counts as binding.
For assay [2], the target named is T1, WcbL. Put plainly: biochemical.

Entries after “also recorded” stand apart in the source; their conditions may differ.

T1 sequence (H7C745 1-346): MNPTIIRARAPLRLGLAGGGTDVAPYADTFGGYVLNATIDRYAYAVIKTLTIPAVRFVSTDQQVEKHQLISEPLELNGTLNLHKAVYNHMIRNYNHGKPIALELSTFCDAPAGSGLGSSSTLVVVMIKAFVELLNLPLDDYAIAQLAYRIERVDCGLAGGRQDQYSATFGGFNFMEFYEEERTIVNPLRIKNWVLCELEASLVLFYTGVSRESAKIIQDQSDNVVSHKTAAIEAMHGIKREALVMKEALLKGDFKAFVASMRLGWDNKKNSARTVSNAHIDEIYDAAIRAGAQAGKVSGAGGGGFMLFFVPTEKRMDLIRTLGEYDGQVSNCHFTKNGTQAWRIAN

The Kd is the equilibrium constant for the complex coming apart. `Nc1ncnc2c1ncn2[C@@H]1OC(COP(=O)(O)OP(=O)(O)OP(=O)(O)O)[C@@H](O)[C@H]1O` (stereo partly shown) [ATP]: in assay [1], the Kd came to 33 ± 7 µM and the “cooperativity coefficient n (DSF binding)” value is listed as 0.6 ± 0.06. As for `N#Cc1coc2c(Cl)cc(Cl)cc2c1=O` [6,8-dichloro-3-cyanochromone], the “activity against WcbL (structure-activity relationship study, in words)” value (“activity against WcbL” for short) in assay [2] was “significantly weaker activity; also recorded: far less potent inhibitor”. What is called Ki is a dissociation constant, usually derived from enzyme kinetics or from competition with a known ligand. Higher therefore signals a looser hold on the target. In assay [2], `N#Cc1coc2ccccc2c1=O` [3-cyanochromone] returned an inhibition constant Ki of 10 ± 6 µM. Regarding `O=c1ccoc2ccccc12` [chromone], the “activity against WcbL” value in assay [2] is “significantly weaker activity; also recorded: does not inhibit WcbL”.

As for `N#Cc1coc2ccc(Br)cc2c1=O` [6-bromo-3-cyanochromone], in assay [2], the Ki stood at 12 ± 5 µM and the “activity against WcbL” value is listed as “very similar to those of the original compound”. `O=P(O)(O)OCC(O)C1OC(O)C(O)C(O)C1O` [M7P, D-manno-α,β-D-heptose-7-phosphate]: in assay [1], the dissociation constant (Kd) came to 968 ± 37 µM and the “cooperativity coefficient n (DSF binding)” value is “did not show any cooperativity”. Turning to `O=Cc1coc2ccccc2c1=O` [chromone-3-carboxaldehyde], the “activity against WcbL” value in assay [2] was “significantly weaker activity; also recorded: much weaker IC50”.
